ChEMBL document CHEMBL2375258, “Synthesis of (R)-norbgugaine and its potential as quorum sensing inhibitor against Pseudomonas aeruginosa” (Bioorg Med Chem Lett, 2013)
The source made the active and inactive calls. No cut-off for these calls is given here.

Experiments:
Pseudomonas aeruginosa [1] = test: Inhibition of quorum sensing system in Pseudomonas aeruginosa ATCC 27853 assessed as inhibition of twitching motility at 0.1 to 0.5 mM after 24 hrs relative to control
Pseudomonas aeruginosa [2] = test: Inhibition of quorum sensing system in Pseudomonas aeruginosa ATCC 27853 assessed as inhibition of swimming motility at 0.1 to 0.5 mM after 24 hrs relative to control
Pseudomonas aeruginosa [3] = test: Inhibition of quorum sensing system in Pseudomonas aeruginosa ATCC 27853 assessed as inhibition of swarming motility at 0.1 to 0.5 mM after 24 hrs relative to control
Pseudomonas aeruginosa [4] = settings: ATCC 27853, 4 mM
Description: Inhibition of quorum sensing system in Pseudomonas aeruginosa ATCC 27853 assessed as inhibition of biofilm formation at 4 mM after 24 hrs by crystal violet staining method relative to control

Pseudomonas aeruginosa [5] = test: Ratio of compound activity to salicylic acid activity for inhibition of quorum sensing system-mediated biofilm formation in Pseudomonas aeruginosa ATCC 27853
Pseudomonas aeruginosa [6] = test: Inhibition of quorum sensing system in Pseudomonas aeruginosa ATCC 27853 assessed as inhibition of LasA at 0.1 to 0.5 mM relative to control
Pseudomonas aeruginosa [7] = test: Inhibition of quorum sensing system in Pseudomonas aeruginosa ATCC 27853 assessed as inhibition of rhamnolipid production at 0.1 to 0.5 mM relative to control
Pseudomonas aeruginosa [8] = test: Inhibition of quorum sensing system in Pseudomonas aeruginosa ATCC 27853 assessed as inhibition of biofilm formation at > 1.8 mM after 24 hrs by crystal violet staining method relative to control
Pseudomonas aeruginosa [9] = test: Inhibition of quorum sensing system in Pseudomonas aeruginosa ATCC 27853 assessed as inhibition of […] pigmentation at 0.1 to 0.5 mM relative to control
Pseudomonas aeruginosa [10] = test: Antibacterial activity against Pseudomonas aeruginosa ATCC 27853 assessed as growth inhibition at 100 ug/mL measured every 2 hrs up to 20 hrs; type: functional, organism-based

| Structure (SMILES) | inhibition (Pseudomonas aeruginosa [1]) | inhibition (Pseudomonas aeruginosa [2]) | inhibition (Pseudomonas aeruginosa [3]) | inhibition (Pseudomonas aeruginosa [4]) | Ratio (Pseudomonas aeruginosa [5]) | inhibition (Pseudomonas aeruginosa [6]) | inhibition (Pseudomonas aeruginosa [7]) | inhibition (Pseudomonas aeruginosa [8]) | inhibition (Pseudomonas aeruginosa [9]) | growth inhibition (GI) (Pseudomonas aeruginosa [10]) |
| --- | --- | --- | --- | --- | --- | --- | --- | --- | --- | --- |
| O=C(O)c1ccccc1O | 35% | 40% | 60% | 48% | – | – | – | – | – | – |
| CCCCCCCCCCCCCC[C@@H]1CCCN1 | 15% | 33% | 95% | – | 2 | 34% | 42% | 83% | 37% | inactive |
